pEC50: −log10 of the molar value. Like-named read-outs stand apart in the source and are kept apart here.
What was measured:
[1] = tested on: SCD1; assay: Measurement of SCD1 expression in SZ95-SCD1-HiBit cells (HiBiT assay); type: cell-based; conditions: Homo sapiens, 48 h; for pEC50: read-out: HiBit EC50
[2] = tested on: SZ95 sebocytes; assay: Sentinel Lipid Assay (SLA), desaturation index in SZ95 sebocytes; type: cell-based; conditions: Homo sapiens, 72 h; for pEC50: read-out: SLA EC50
How it was run: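 SZ95 human sebocytes on fibronectin-coated plates, dosed 72 h at 37 °C with 1:3 dilutions from 10 μM; lipids extracted with deuterated triglyceride internal standards and quantified by LC-MS/MS (MRM) as 11 sentinel lipids. Desaturation index from elastic-net coefficients, normalized to DMSO; Amax relative to a reference LXR agonist.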

[3] = normalized Amax based on the reference compound Amax of 100%, read-out: HiBit Normalized Amax
[4] = SZ95-SCD1-HiBit cells, SCD1 protein production, luminescence, initial dilution 1:3 in DMSO
[5] = SZ95-SCD1-HiBit cells, compared to reference compound, read-out: HiBit Amax
[6] = normalized Amax based on the reference compound Amax of 100%, read-out: SLA Normalized Amax
[7] = SZ95 cells, desaturation index, lowest dose used 4.6 nM
[8] = SZ95 cells, compared to reference compound, read-out: SLA Amax
[9] = read-out: HiBit Normalized Amax

| SMILES | pEC50 [1, 4] | pEC50 [2, 7] | Emax [1, 3] | Emax [1, 5] | Emax [2, 6] | Emax [2, 8] | Emax ([1]; read-out: HiBit Amax) | pEC50 [1] | Emax [1, 9] | Emax ([2]; read-out: SLA Amax) | pEC50 [2] | Emax ([2]; read-out: SLA Normalized Amax) |
| --- | --- | --- | --- | --- | --- | --- | --- | --- | --- | --- | --- | --- |
| O=C1N(Cc2nc(-c3ccc(Oc4ccccc4S(=O)(=O)CC(F)(F)F)c(C(F)(F)F)c3)no2)C(=O)C2(CCN(C3CCC3)CC2)N1CCN1CCOCC1 [Compound 47, 8-cyclobutyl-1-(2-morpholinoethyl)-3-((3-(4-(2-((2,2,2-trifluoroethyl)sulfonyl)phenoxy)-3-(trifluoromethyl)phenyl)-1,2,4-oxadiazol-5-yl)methyl)-1,3,8-triazaspiro[4.5]decane-2,4-dione] | 9.14 | ≥ 8.34 | 80.5% | 76.6% | 147% | 142% | – | – | – | – | – | – |
| O=C1N(Cc2nc(-c3ccc(Oc4ccccc4S(=O)(=O)CC(F)(F)F)c(C(F)(F)F)c3)no2)C(=O)C2(CCN(C3CCC3)CC2)N1CCC1CCOCC1 [Compound 48, 8-cyclobutyl-1-(2-(tetrahydro-2H-pyran-4-yl)ethyl)-3-((3-(4-(2-((2,2,2-trifluoroethyl)sulfonyl)phenoxy)-3-(trifluoromethyl)phenyl)-1,2,4-oxadiazol-5-yl)methyl)-1,3,8-triazaspiro[4.5]decane-2,4-dione] | 10.28 | ≥ 8.34 | 93.5% | 88.9% | 125% | 120% | – | – | – | – | – | – |
| CC(C)CS(=O)(=O)c1ccccc1Oc1ccc(-c2noc(CN3C(=O)N(CCN4CCOCC4)C(C)(C)C3=O)n2)cc1Cl [Compound 49, 3-((3-(3-chloro-4-(2-(isobutylsulfonyl)phenoxy)phenyl)-1,2,4-oxadiazol-5-yl)methyl)-5,5-dimethyl-1-(2-morpholinoethyl)imidazolidine-2,4-dione] | 7.92 | 7.39 | 74.6% | 70.9% | 114% | 110% | – | – | – | – | – | – |
| CC1(C)C(=O)N(Cc2nc(-c3ccc(Oc4ccccc4S(=O)(=O)CC4CCCCO4)c(C(F)(F)F)c3)no2)C(=O)N1CCN1CCOCC1 (stereo not drawn) [Compound 53, 5,5-dimethyl-1-(2-morpholinoethyl)-3-((3-(4-(2-(((tetrahydro-2H-pyran-2-yl)methyl)sulfonyl)phenoxy)-3-(trifluoromethyl)phenyl)-1,2,4-oxadiazol-5-yl)methyl)imidazolidine-2,4-dione] | 9.58 | ≥ 8.34 | 101% | 96.2% | 146% | 140% | – | – | – | – | – | – |
| O=C1N(Cc2nc(-c3ccc(Oc4ccccc4S(=O)(=O)CC4CCCO4)c(C(F)(F)F)c3)no2)C(=O)C2(CCOCC2)N1CCN1CCOCC1 (stereo not drawn) [Compound 56, 1-(2-morpholinoethyl)-3-((3-(4-(2-(((tetrahydrofuran-2-yl)methyl)sulfonyl)phenoxy)-3-(trifluoromethyl)phenyl)-1,2,4-oxadiazol-5-yl)methyl)-8-oxa-1,3-diazaspiro[4.5]decane-2,4-dione] | 8.99 | ≥ 8.34 | 76.6% | 72.8% | 187% | 180% | – | – | – | – | – | – |
| COCCN(CCOC)CCS(=O)(=O)c1ccccc1Oc1ccc(-c2noc(CN3C(=O)N(CCN4CCOCC4)C(C)(C)C3=O)n2)cc1C(F)(F)F [Compound 61, 3-((3-(4-(2-((2-(bis(2-methoxyethyl)amino)ethyl)sulfonyl)phenoxy)-3-(trifluoromethyl)phenyl)-1,2,4-oxadiazol-5-yl)methyl)-5,5-dimethyl-1-(2-morpholinoethyl)imidazolidine-2,4-dione] | 8.04 | ≥ 8.34 | 78.9% | 75% | 178% | 171% | – | – | – | – | – | – |
| CC(COc1ccc(-c2noc(CN3C(=O)N(CCC4CCOCC4)C4(CCN(C5CCC5)CC4)C3=O)n2)cc1C(F)(F)F)(C(F)(F)F)C(F)(F)F [Compound 63, 8-cyclobutyl-1-(2-(tetrahydro-2H-pyran-4-yl)ethyl)-3-((3-(4-(3,3,3-trifluoro-2-methyl-2-(trifluoromethyl)propoxy)-3-(trifluoromethyl)phenyl)-1,2,4-oxadiazol-5-yl)methyl)-1,3,8-triazaspiro[4.5]decane-2,4-dione] | – | – | – | – | – | – | 74.6% | 9.66 | 78.4% | 72.2% | ≥ 8.34 | 75.2% |
| CC1(C)C(=O)N(Cc2nc(-c3ccc(Oc4ccccc4S(=O)(=O)CC4CCCO4)c(C(F)(F)F)c3)no2)C(=O)N1CCN1CCOCC1 (stereo not drawn) [Compound 64, 5,5-dimethyl-1-(2-morpholinoethyl)-3-((3-(4-(2-(((tetrahydrofuran-2-yl)methyl)sulfonyl)phenoxy)-3-(trifluoromethyl)phenyl)-1,2,4-oxadiazol-5-yl)methyl)imidazolidine-2,4-dione] | – | – | – | – | – | – | 97.9% | 10.20 | 103% | 154% | ≥ 8.34 | 160% |
| CC1(C)C(=O)N(Cc2nc(-c3ccc(Oc4cnccc4C(F)(F)F)c(C(F)(F)F)c3)no2)C(=O)N1CCN1CCOCC1 [Compound 65, 5,5-dimethyl-1-(2-morpholinoethyl)-3-((3-(3-(trifluoromethyl)-4-((4-(trifluoromethyl)pyridin-3-yl)oxy)phenyl)-1,2,4-oxadiazol-5-yl)methyl)imidazolidine-2,4-dione] | 7.82 | ≥ 8.34 | 69.8% | 66.4% | 108% | 104% | – | – | – | – | – | – |

The next lines start with results.

| pEC50 [1, 4] | pEC50 [2, 7] | SMILES | Emax [1, 3] | Emax [1, 5] | Emax [2, 6] | Emax [2, 8] | Emax ([1]; read-out: HiBit Amax) | pEC50 [1] | Emax [1, 9] | Emax ([2]; read-out: SLA Amax) | pEC50 [2] | Emax ([2]; read-out: SLA Normalized Amax) |
| --- | --- | --- | --- | --- | --- | --- | --- | --- | --- | --- | --- | --- |
| 8.22 | ≥ 8.34 | CC(C)CS(=O)(=O)c1ccccc1Oc1ccc(-c2noc(CN3C(=O)N(CCN4CCOCC4)C(C)(CO)C3=O)n2)cc1C(F)(F)F (stereo not drawn) [Compound 46, 5-(hydroxymethyl)-3-((3-(4-(2-(isobutylsulfonyl)phenoxy)-3-(trifluoromethyl)phenyl)-1,2,4-oxadiazol-5-yl)methyl)-5-methyl-1-(2-morpholinoethyl)imidazolidine-2,4-dione] | 98% | 93.2% | 170% | 163% | – | – | – | – | – | – |
| 7.53 | 7.63 | CC(C)CS(=O)(=O)c1ccccc1Oc1ccc(-c2noc(CN3C(=O)N(CCCN4CCCC4)C(C)(C)C3=O)n2)cc1C(F)(F)F [Compound 50b, 3-((3-(4-(2-(isobutylsulfonyl)phenoxy)-3-(trifluoromethyl)phenyl)-1,2,4-oxadiazol-5-yl)methyl)-5,5-dimethyl-1-(3-(pyrrolidin-1-yl)propyl)imidazolidine-2,4-dione] | 67.1% | 63.8% | 60.6% | 58.2% | – | – | – | – | – | – |
| 7.91 | ≥ 8.34 | CC(C)CS(=O)(=O)c1ccccc1Oc1ccc(-c2noc(CN3C(=O)N(Cc4ccccn4)C(C)(C)C3=O)n2)cc1C(F)(F)F [Compound 51, 3-((3-(4-(2-(isobutylsulfonyl)phenoxy)-3-(trifluoromethyl)phenyl)-1,2,4-oxadiazol-5-yl)methyl)-5,5-dimethyl-1-(pyridin-2-ylmethyl)imidazolidine-2,4-dione] | 88.7% | 84.4% | 120% | 116% | – | – | – | – | – | – |
| 8.54 | ≥ 8.34 | CC(O)CS(=O)(=O)c1ccccc1Oc1ccc(-c2noc(CN3C(=O)N(CCN4CCOCC4)C(C)(C)C3=O)n2)cc1C(F)(F)F (stereo not drawn) [Compound 52, 3-((3-(4-(2-((2-hydroxypropyl)sulfonyl)phenoxy)-3-(trifluoromethyl)phenyl)-1,2,4-oxadiazol-5-yl)methyl)-5,5-dimethyl-1-(2-morpholinoethyl)imidazolidine-2,4-dione] | 79.5% | 75.6% | 119% | 114% | – | – | – | – | – | – |
| 8.41 | ≥ 8.34 | COCCS(=O)(=O)c1ccccc1Oc1ccc(-c2noc(CN3C(=O)N(CC4CC4)C(C)(C)C3=O)n2)cc1C(F)(F)F [Compound 54, 1-(cyclopropylmethyl)-3-((3-(4-(2-((2-methoxyethyl)sulfonyl)phenoxy)-3-(trifluoromethyl)phenyl)-1,2,4-oxadiazol-5-yl)methyl)-5,5-dimethylimidazolidine-2,4-dione] | 84.9% | 80.7% | 157% | 151% | – | – | – | – | – | – |
| 8.35 | ≥ 8.34 | CC1(C)C(=O)N(Cc2nc(-c3ccc(Oc4ccccc4S(C)(=O)=O)c(C(F)(F)F)c3)no2)C(=O)N1CCN1CCOCC1 [Compound 55, 5,5-dimethyl-3-((3-(4-(2-(methylsulfonyl)phenoxy)-3-(trifluoromethyl)phenyl)-1,2,4-oxadiazol-5-yl)methyl)-1-(2-morpholinoethyl)imidazolidine-2,4-dione] | 91.6% | 87.1% | 161% | 154% | – | – | – | – | – | – |
| 9.55 | ≥ 8.34 | COCCS(=O)(=O)c1ccccc1Oc1ccc(-c2noc(CN3C(=O)N(CCN4CCOCC4)C(C)(C)C3=O)n2)cc1C(F)(F)F [Compound 58, 3-((3-(4-(2-((2-methoxyethyl)sulfonyl)phenoxy)-3-(trifluoromethyl)phenyl)-1,2,4-oxadiazol-5-yl)methyl)-5,5-dimethyl-1-(2-morpholinoethyl)imidazolidine-2,4-dione] | 107% | 102% | 167% | 161% | – | – | – | – | – | – |
